Key:
[1] = Stability with different solvents (initial tests, HPLC-DAD); assay type: physicochemical; conditions: room temperature
Method: The stability of (E)-3-tosylacrylonitrile in different solvents, concentrations and temperatures was studied. The initial tests were conducted at room temperature and the tested solvents were i) propylene carbonate; ii) ethanol; iii) dimethylsulfoxide (DMSO); iv) combination of 35% ethanol-65% propylene glycol; v) water at pH 4; and water at pH 8. The amount of (E)-3-tosylacrylonitrile was analysed with HPLC-DAD. For sample pre-treatment, an approximately 1.45 mg/ml solution of (E)-3-tosylacrylonitrile was prepared in acetonitrile and the solution was analysed by HPLC. Quantification was performed using external (ESTD) calibration with authentic standards. Results from the initial tests with propylene carbonate, ethanol, dimethylsulfoxide, 35% ethanol-65% propylene glycol, and water are presented in FIG. 1.

[2] = Long-time stability in propylene carbonate (second round of tests, HPLC-DAD); assay type: physicochemical
Method: The amount of (E)-3-tosylacrylonitrile was analysed with HPLC-DAD. For sample pre-treatment, an approximately 1.45 mg/ml solution of (E)-3-tosylacrylonitrile was prepared in acetonitrile and the solution was analysed by HPLC. Quantification was performed using external (ESTD) calibration with authentic standards. After the initial tests, a second round of tests were conducted with propylene carbonate. The stability of (E)-3-tosylacrylonitrile in propylene carbonate was tested at 10 mg/ml and 50 mg/ml concentrations and at different temperatures. The effect of light on the stability was also examined (FIGS. 2 and 3).

dissolving in propylene carbonate ([1]; propylene carbonate): dissolved immediately
stability in propylene carbonate (short-term) ([1]; propylene carbonate): stable for at least one month
final concentration of (E)-3-tosylacrylonitrile after 6 months ([2]; 10 mg/ml and 50 mg/ml, all tested conditions (different temperatures, light), 6 months): above 90%
degradation in propylene carbonate ([2]; 10 and 50 mg/ml): slow
stability in propylene carbonate ([2]; 10 and 50 mg/ml, different temperatures, light): good even in harsh conditions
Compound: Cc1ccc(S(=O)(=O)/C=C/C#N)cc1 [(E)-3-tosylacrylonitrile]
dissolving in the tested solvent ([1]; most tested solvents (ethanol, DMSO, 35% ethanol-65% propylene glycol, water pH 4, water pH 8)): did not dissolve thoroughly in the tested solvent or dissolving continued for several days
